Data on 3 molecules can be found in ChEMBL document CHEMBL4837196, “Cytotoxic and Antiangiogenetic Xanthones Inhibiting Tumor Proliferation and Metastasis from Garcinia xipshuanbannaensis” (J Nat Prod, 2021).

Activity calls are given as the source filed them. The rule behind the calls is not given here. Bounds are passed on as bounds.

The test system of data set [1] is HeLa. The experiment in a line: Cytotoxicity against human HeLa cells assessed as inhibition of cell proliferation incubated for 48 hrs by MTT assay. It counts as functional, cell-based.
Data set [2] deals with HeLa. The experiment in a line: Cell cycle arrest in human HeLa cells assessed as accumulation at G0/G1 phase at 24 uM measured after 48 hrs by PI-staining based flow cytometric analysis (reference value: 40.03%). It counts as functional.
Data set [3] deals with HeLa. The experiment in a line: Cell cycle arrest in human HeLa cells assessed as accumulation at G2 phase at 24 uM measured after 48 hrs by PI-staining based flow cytometric analysis (reference value: 8.58%). It counts as functional.
Data set [4] deals with HeLa. Put plainly: Induction of apoptosis in human HeLa cells assessed as early apoptotic cells at 12 uM measured after 48 hrs by Annexin V-FITC/propidium iodide staining based flow cytometric analysis (reference value: 3.34 %). It counts as functional.
The subject of data set [5] is HeLa. The experiment in a line: Induction of apoptosis in human HeLa cells assessed as early apoptotic cells at 6 uM measured after 48 hrs by Annexin V-FITC/propidium iodide staining based flow cytometric analysis (reference value: 3.34 %). Format: functional. In general terms: Flow cytometry measures light scatter and fluorescence of single cells or particles in a stream.

The test system of data set [6] is HeLa. The experiment in a line: Induction of apoptosis in human HeLa cells assessed as necrotic cells at 24 uM measured after 48 hrs by Annexin V-FITC/propidium iodide staining based flow cytometric analysis (reference value: 1.32 %). Format: functional.
The test system of data set [7] is HeLa. Put plainly: Cell cycle arrest in human HeLa cells assessed as accumulation at S phase at 6 uM measured after 48 hrs by PI-staining based flow cytometric analysis (reference value: 51.39%). It counts as functional.
In data set [8] the target is Signal transducer and activator of transcription 3 (Homo sapiens) (UniProt P40763). The experiment in a line: Inhibition of STAT3 activation in human HeLa cells measured after 12 hrs by western blot analysis. It counts as cell-based.
Chain of Signal transducer and activator of transcription 3 (Homo sapiens) (P40763 whole entry): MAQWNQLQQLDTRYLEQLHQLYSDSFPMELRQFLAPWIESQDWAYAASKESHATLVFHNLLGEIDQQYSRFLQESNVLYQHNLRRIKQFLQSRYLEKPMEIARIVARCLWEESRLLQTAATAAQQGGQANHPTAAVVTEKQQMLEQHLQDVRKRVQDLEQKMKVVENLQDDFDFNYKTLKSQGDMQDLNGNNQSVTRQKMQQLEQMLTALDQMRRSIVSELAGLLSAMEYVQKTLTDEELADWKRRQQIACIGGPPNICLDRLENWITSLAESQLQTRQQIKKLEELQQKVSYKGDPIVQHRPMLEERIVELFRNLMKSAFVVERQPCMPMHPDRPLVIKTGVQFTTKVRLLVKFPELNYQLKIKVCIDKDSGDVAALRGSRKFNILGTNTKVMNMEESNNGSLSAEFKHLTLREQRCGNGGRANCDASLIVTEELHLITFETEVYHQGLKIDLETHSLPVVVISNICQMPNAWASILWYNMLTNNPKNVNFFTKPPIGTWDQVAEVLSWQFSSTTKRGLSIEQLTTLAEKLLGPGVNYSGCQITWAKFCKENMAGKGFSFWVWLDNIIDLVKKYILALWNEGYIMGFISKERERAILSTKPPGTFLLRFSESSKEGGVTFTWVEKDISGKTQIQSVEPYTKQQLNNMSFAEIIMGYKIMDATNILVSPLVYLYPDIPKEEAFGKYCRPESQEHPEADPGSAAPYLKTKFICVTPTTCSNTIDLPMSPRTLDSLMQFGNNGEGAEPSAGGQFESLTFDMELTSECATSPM
For data set [9] the target is unchanged. Put plainly: Inhibition of STAT3 phosphorylation in human HeLa cells measured after 12 hrs by western blot analysis. It counts as cell-based.
In data set [10] the test system is HeLa. Put plainly: Cell cycle arrest in human HeLa cells assessed as accumulation at G2 phase at 6 uM measured after 48 hrs by PI-staining based flow cytometric analysis (reference value: 8.58%). It counts as functional.
Data set [11] concerns HeLa. The experiment in a line: Induction of apoptosis in human HeLa cells assessed as late apoptotic cells at 24 uM measured after 48 hrs by Annexin V-FITC/propidium iodide staining based flow cytometric analysis (reference value: 12.2 %). It counts as functional.
For data set [12], the system named is HeLa. Put plainly: Cell cycle arrest in human HeLa cells assessed as accumulation at G0/G1 phase at 6 uM measured after 48 hrs by PI-staining based flow cytometric analysis (reference value: 40.03%). It counts as functional.
The subject of data set [13] is HeLa. Put plainly: Cell cycle arrest in human HeLa cells assessed as accumulation at G2 phase at 12 uM measured after 48 hrs by PI-staining based flow cytometric analysis (reference value: 8.58%). It counts as functional.
Data set [14] deals with HepG2. The experiment in a line: Antitumour activity against CM-Dil labeled human HepG2 cells xenografted in AB zebrafish embryo assessed as retarded tumor growth measured after 48 hrs by confocal microscopy analysis. Format: functional, cell-based. To be noted: dose 12-48 µM.
Data set [15] concerns HeLa. The experiment in a line: Cell cycle arrest in human HeLa cells assessed as accumulation at G0/G1 phase at 12 uM measured after 48 hrs by PI-staining based flow cytometric analysis (reference value: 40.03%). Format: functional.
Data set [16] relates to HeLa. The experiment in a line: Induction of apoptosis in human HeLa cells assessed as late apoptotic cells at 6 uM measured after 48 hrs by Annexin V-FITC/propidium iodide staining based flow cytometric analysis (reference value: 12.2 %). Format: functional.
Data set [17] has as its system HeLa. Put plainly: Cell cycle arrest in human HeLa cells assessed as accumulation at S phase at 12 uM measured after 48 hrs by PI-staining based flow cytometric analysis (reference value: 51.39%). Format: functional.
The test system of data set [18] is HeLa. Put plainly: Induction of apoptosis in human HeLa cells assessed as viable cells at 24 uM measured after 48 hrs by Annexin V-FITC/propidium iodide staining based flow cytometric analysis (reference value: 83.1 %). It counts as functional. Conditions: read-out: Activity.
The species named for data set [19] is Danio rerio. Put plainly: Antiangiogenesis activity in Tg(fli1:EGFP) transgenic zebrafish embryo assessed as change in intersegmental vessels length at 48 uM measured after 48 hrs by confocal microscopy analysis (reference value: 3233.3 micrometer). Format: functional.
Data set [20] relates to HeLa. Put plainly: Induction of apoptosis in human HeLa cells assessed as early apoptotic cells at 24 uM measured after 48 hrs by Annexin V-FITC/propidium iodide staining based flow cytometric analysis (reference value: 3.34 %). Format: functional.
The species entered for data set [21] is Danio rerio. Put plainly: Antiangiogenesis activity in Tg(fli1:EGFP) transgenic zebrafish embryo assessed as change in intersegmental vessels length at 24 uM measured after 48 hrs by confocal microscopy analysis (reference value: 3233.3 micrometer). Format: functional.
The test system of data set [22] is HeLa. Put plainly: Cell cycle arrest in human HeLa cells assessed as accumulation at S phase at 24 uM measured after 48 hrs by PI-staining based flow cytometric analysis (reference value: 51.39%). Format: functional.
Data set [23] deals with HeLa. The experiment in a line: Induction of apoptosis in human HeLa cells assessed as late apoptotic cells at 12 uM measured after 48 hrs by Annexin V-FITC/propidium iodide staining based flow cytometric analysis (reference value: 12.2 %). It counts as functional.
The next data set relates to K562. The experiment in a line: Cytotoxicity against human K562 cells assessed as inhibition of cell proliferation incubated for 48 hrs by MTT assay. It counts as functional, cell-based. Conditions: K562, 48 h. (Tetrazolium assays rely on reduction of a dye to a coloured formazan, in cell work by metabolically active cells.)
Data set [24] concerns HeLa. The experiment in a line: Induction of apoptosis in human HeLa cells assessed as necrotic cells at 6 uM measured after 48 hrs by Annexin V-FITC/propidium iodide staining based flow cytometric analysis (reference value: 1.32 %). It counts as functional.
For data set [25], the system named is HepG2. The experiment in a line: Cytotoxicity against human HepG2 cells assessed as inhibition of cell proliferation incubated for 48 hrs by MTT assay. Format: functional, cell-based. To be noted: HepG2, 48 h.
In data set [26] the test system is HeLa. The experiment in a line: Induction of apoptosis in human HeLa cells assessed as viable cells at 12 uM measured after 48 hrs by Annexin V-FITC/propidium iodide staining based flow cytometric analysis (reference value: 83.1 %). Format: functional. To be noted: read-out: Activity.
In data set [27] the test system is HeLa. The experiment in a line: Induction of apoptosis in human HeLa cells assessed as viable cells at 6 uM measured after 48 hrs by Annexin V-FITC/propidium iodide staining based flow cytometric analysis (reference value: 83.1 %). It counts as functional. Conditions: read-out: Activity.
Data set [28] relates to HeLa. Put plainly: Induction of apoptosis in human HeLa cells assessed as necrotic cells at 12 uM measured after 48 hrs by Annexin V-FITC/propidium iodide staining based flow cytometric analysis (reference value: 1.32 %). Format: functional.
Data set [29] deals with HeLa. Put plainly: Induction of reactive oxygen species generation in human HeLa cells assessed as increase in ROS level at 2.5 to 30 uM measured after 48 hrs by DCFH-DA staining based flow cytometric analysis. Format: functional, cell-based. To be noted: dose 2.5-30 µM.
The species entered for data set [30] is Danio rerio. The experiment in a line: Antiangiogenesis activity in Tg(fli1:EGFP) transgenic zebrafish embryo assessed as change in intersegmental vessels length at 12 uM measured after 48 hrs by confocal microscopy analysis (reference value: 3233.3 micrometer). Format: functional.
Data set [31] is described as follows: Effect on STAT3 protein level in human HeLa cells at 6 to 24 uM by Western blotting. Format: ADME, cell-based. To be noted: dose 6-24 µM. On the technique in general: In western blotting, separated proteins are transferred to a membrane and probed.

As for `COC(=O)C[C@](O)(CCCC(C)(C)O)C(=O)O[C@@H]1C(OC)=C[C@]23CCCN2CCc2cc4c(cc2[C@H]13)OCO4` [OMACETAXINE MEPESUCCINATE], in the data set with HeLa [1], the IC50 (in general, the concentration that gives 50% inhibition) was determined as 0.4 µM.
`COC(C)(C)CCc1c(O)c(O)cc2oc3c4c(c(CC=C(C)C)c(O)c3c(=O)c12)OC(C)(C)C=C4`: the Activity was determined as 67.2% with HeLa [2]; 1.71% in the data set with HeLa [3]; 8.23% in the data set on HeLa [4]; 6.92% in the data set on HeLa [5]; 3.76% in the data set on HeLa [6]; 38.09% with HeLa [7]. Moreover, the Activity in the data set with HeLa [10] was 6.58%; in the data set with HeLa [11], 24%; in the data set on HeLa [12], 55.33%; in the data set with HeLa [13] it was 4.63%; with HepG2 [14], “Dose-Dependent Effect”; in the data set on HeLa [15], 65.78%. Besides, the Activity in the data set with HeLa [16] came to 16.1%; in the data set with HeLa [17], 29.59%; in the data set listed under Danio rerio [19], 1881.6 um; in the data set with HeLa [20] it was 13.6%; in the data set listed under Danio rerio [21], 2263.2 um; in the data set with HeLa [22] it was 31.09%. In addition, the Activity in the data set with HeLa [23] was 18%; in the data set on HeLa [24], 1.72%; in the data set on HeLa [28], 2.63%; in the data set filed under Danio rerio [30] it was 2476.5 um; in data set [31], “Non-Toxic”. For the same molecule, the inhibition result in data set [8] was “Dose-Dependent Effect”. The inhibition result in data set [9] is “Active”. Besides, the IC50 was 9.6 µM in the data set on HeLa [1], > 10 µM in the data set with K562 and > 10 µM with HepG2 [25]. Also, the viability at 24 µM with HeLa [18] is 58.1%. Further, the viability at 12 µM in the data set on HeLa [26] worked out at 71.2%. The viability at 6 µM with HeLa [27] amounted to 75.2%. Further, in the data set on HeLa [29], the outcome was Active.
Consider `COc1cc([C@@H]2c3cc4c(cc3[C@@H](O[C@@H]3O[C@@H]5CO[C@@H](C)O[C@H]5[C@H](O)[C@H]3O)[C@H]3COC(=O)[C@H]23)OCO4)cc(OC)c1O`, for which the Activity entry in the data set on HepG2 [14] was “Dose-Dependent Effect”.
